In patent US20260285880A1, “SUBSTITUTED DIHYDROTHIENOPYRIMIDINE COMPOUND, PREPARATION METHOD THEREFOR, AND USE THEREOF” (SHANGHAI YIDI BIOTECHNOLOGY CO., LTD., priority 2023, published 2026) one finds inhibition data, which are given here for 29 compounds.

The target in the test is Flpin-293-PDE4B2 cells (Homo sapiens, UniProt Q07343). Nature of the test: cell-based. As to conditions: for inhibition at 0.001 µM: read-out: Cell Inhibition % @1 nM, 1 nM, Flpin-293-PDE4B2 cells; for inhibition at 0.01 µM: read-out: Cell Inhibition % @10 nM, 10 nM, Flpin-293-PDE4B2 cells; for inhibition at 0.1 µM: read-out: Cell Inhibition % @100 nM, 100 nM, Flpin-293-PDE4B2 cells.
Flpin-293-PDE4B2 cells, sequence (Q07343 1-564 isoform Q07343-2): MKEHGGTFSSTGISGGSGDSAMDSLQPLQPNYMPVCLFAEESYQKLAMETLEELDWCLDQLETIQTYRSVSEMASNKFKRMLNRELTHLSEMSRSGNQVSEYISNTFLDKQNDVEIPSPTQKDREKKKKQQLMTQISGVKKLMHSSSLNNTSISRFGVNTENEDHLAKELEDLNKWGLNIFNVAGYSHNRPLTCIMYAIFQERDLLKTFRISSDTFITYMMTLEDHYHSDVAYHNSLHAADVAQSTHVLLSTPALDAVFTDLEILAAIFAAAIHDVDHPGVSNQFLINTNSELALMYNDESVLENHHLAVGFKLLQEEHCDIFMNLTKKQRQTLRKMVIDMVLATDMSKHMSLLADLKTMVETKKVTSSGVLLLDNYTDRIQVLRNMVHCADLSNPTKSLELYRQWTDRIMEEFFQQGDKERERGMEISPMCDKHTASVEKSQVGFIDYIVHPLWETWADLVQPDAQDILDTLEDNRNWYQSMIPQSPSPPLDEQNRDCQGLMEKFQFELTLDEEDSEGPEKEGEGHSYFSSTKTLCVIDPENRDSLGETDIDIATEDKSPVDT

Protocol: All compounds were dissolved in DMSO into 10 mM or 20 mM stock solutions. The compound to be tested was diluted with DMSO with a 3-fold gradient. […] 40 nL/well of the compound or a DMSO control was transferred to a 384-well plate by using Echo 550 instrument. […] The plate was incubated at 37° C. for 30 minutes. Eu-cAMP tracer and Ulight-anti-cAMP were frozen and thawed and diluted in a lysis buffer. 10 of μl Eu-cAMP tracer was added to an experimental well, and 10 μl of Ulight-anti-cAMP was added to the experimental well. The reaction plate was centrifuged at 200 g at room temperature for 30 s and then left to stand at 25° C. for 1 h, and data was then collected by Envision. Inhibition %=100−(Signal compound−SignalAve positive control)/(SignalAve negative control−SignalAve positive control)×100.

For `Cc1ccc2c(c1)OC[C@H]1CN(c3nc4c(c(NC5(CO)CCC5)n3)[S+]([O-])CC4)CC[C@H]21` (stereo partly drawn) [Compound 112], the inhibition at 0.001 µM is 12.3%, the inhibition at 0.01 µM turned out to be 54.1% and the inhibition at 0.1 µM came to 99.4%.
In the case of `[O-][S+]1CCc2nc(N3CC[C@@H]4c5ccc(Br)cc5OC[C@H]4C3)nc(NC3(CO)CCC3)c21` (stereo partly drawn) [Compound 115], the inhibition at 0.001 µM turned out to be 7.72%, the inhibition at 0.01 µM was 39.7% and the inhibition at 0.1 µM was 97.7%.
Consider `[O-][S+]1CCc2nc(N3CC[C@H]4c5ccc(Cl)cc5OC[C@H]4C3)nc(NC3(CO)CCC3)c21` (stereo partly drawn) [Compound 116], for which the inhibition at 0.001 µM turned out to be 2.17%, the inhibition at 0.01 µM was found to be 16.9% and the inhibition at 0.1 µM was determined as 73.4%.
In the case of `[O-][S+]1CCc2nc(N3CC[C@H]4c5cnc(Cl)cc5OC[C@@H]4C3)nc(NC3(CO)CCC3)c21` (stereo partly drawn) [Compound 117], the inhibition at 0.001 µM was 5.32%, the inhibition at 0.01 µM turned out to be 17.3% and the inhibition at 0.1 µM was 61.6%.
In the case of `C[C@H]1c2ccc(Br)cc2CCN1c1nc2c(c(NC3(CO)CCC3)n1)[S+]([O-])CC2` (stereo partly drawn) [Compound 123], the inhibition at 0.001 µM was found to be 3.3%, the inhibition at 0.01 µM was 29.6% and the inhibition at 0.1 µM came to 86.8%.
With `O=C(O)Cc1ccc(Nc2nc(N3CCc4cc(Cl)ccc4C3)nc3c2[S@@+]([O-])CC3)cc1` [Compound 128], the inhibition at 0.001 µM is -0.97%, the inhibition at 0.01 µM came out at 6.68% and the inhibition at 0.1 µM was 25.4%.
On to `O=C(O)Cc1ccc(Nc2nc(N3CCc4cc(Cl)ccc4C3)nc3c2[S@+]([O-])CC3)cc1` [Compound 129], for which the inhibition at 0.001 µM was determined as 6.93%, the inhibition at 0.01 µM worked out at 39.6% and the inhibition at 0.1 µM turned out to be 72.2%.
With `NC(=O)Nc1ccc(Nc2nc(N3CCc4cc(Cl)ccc4C3)nc3c2[S+]([O-])CC3)cc1` (stereo not drawn) [Compound 137], the inhibition at 0.001 µM turned out to be 4.94%, the inhibition at 0.01 µM is 21.8% and the inhibition at 0.1 µM was determined as 83.8%.
In the case of `N#CCc1ccc(Nc2nc(N3CCc4cc(Cl)ccc4C3)nc3c2[S+]([O-])CC3)cc1` (stereo not drawn) [Compound 138], the inhibition at 0.001 µM is 4.95%, the inhibition at 0.01 µM is 27.9% and the inhibition at 0.1 µM amounted to 89.6%.
As for `[O-][S+]1CCc2nc(N3CCc4cc(Cl)ccc4C3)nc(Nc3ccc(CCO)cc3)c21` (stereo not drawn) [Compound 139], the inhibition at 0.001 µM came to 16.2%, the inhibition at 0.01 µM worked out at 78.6% and the inhibition at 0.1 µM is 102%.
Take `Cn1cc(Nc2nc(N3CCc4cc(Cl)ccc4C3)nc3c2[S+]([O-])CC3)cn1` (stereo not drawn) [Compound 141]: the inhibition at 0.001 µM worked out at 11.4%, the inhibition at 0.01 µM came to 49.2% and the inhibition at 0.1 µM was determined as 96%.
In the case of `COC[C@H]1CCCN1c1ccc2c(c1)CCN(c1nc3c(c(NC4(CO)CCC4)n1)[S+]([O-])CC3)C2` (stereo partly drawn) [Compound 146], the inhibition at 0.001 µM came out at 14.8%, the inhibition at 0.01 µM came to 85.1% and the inhibition at 0.1 µM amounted to 101%.
With `COC[C@@H]1CCCN1c1ccc2c(c1)CCN(c1nc3c(c(NC4(CO)CCC4)n1)[S+]([O-])CC3)C2` (stereo partly drawn) [Compound 147], the inhibition at 0.001 µM amounted to 8.67%, the inhibition at 0.01 µM turned out to be 32.2% and the inhibition at 0.1 µM came to 94.4%.
Regarding `[O-][S+]1CCc2nc(N3CCc4cc(N5CC6(COC6)C5)ccc4C3)nc(NC3(CO)CCC3)c21` (stereo not drawn) [Compound 164], the inhibition at 0.001 µM amounted to 6.23%, the inhibition at 0.01 µM is 20% and the inhibition at 0.1 µM came to 61.1%.
For the compound `[O-][S+]1CCc2nc(N3CCc4cc(N5CCC(CO)C5)ccc4C3)nc(NC3(CO)CCC3)c21` (stereo not drawn) [Compound 171], the inhibition at 0.001 µM came out at 4.06%, the inhibition at 0.01 µM turned out to be 36.5% and the inhibition at 0.1 µM is 94.3%.
Regarding `[O-][S+]1CCc2nc(N3CCc4cc(N5CC[C@H](O)C5)ccc4C3)nc(NC3(CO)CCC3)c21` (stereo partly drawn) [Compound 172], the inhibition at 0.001 µM worked out at 3.77%, the inhibition at 0.01 µM was determined as 46% and the inhibition at 0.1 µM was determined as 96.6%.
`[O-][S+]1CCc2nc(N3CCc4cc(N5C[C@H]6COC[C@H]6C5)ccc4C3)nc(NC3(CO)CCC3)c21` (stereo partly drawn) [Compound 178]: the inhibition at 0.001 µM is 8.53%, the inhibition at 0.01 µM worked out at 68% and the inhibition at 0.1 µM was 98.9%.
As to `[O-][S+]1CCc2nc(N3CCc4cc(N5CCCC5)cc(F)c4C3)nc(NC3(CO)CCC3)c21` (stereo not drawn) [Compound 182], the inhibition at 0.001 µM amounted to 3.68%, the inhibition at 0.01 µM was 40.6% and the inhibition at 0.1 µM came out at 98%.
Regarding `COC[C@@H](CO)Nc1nc(N2CCc3cc(N4CCCC4)ccc3C2)nc2c1[S+]([O-])CC2` (stereo partly drawn) [Compound 199], the inhibition at 0.001 µM was -0.51%, the inhibition at 0.01 µM was 8.04% and the inhibition at 0.1 µM was 61.6%.
Consider `C[C@H]1c2ccc(N3CCCC3)cc2CCN1c1nc2c(c(N[C@H]3CCC(=O)N(C)C3)n1)[S+]([O-])CC2` (stereo partly drawn) [Compound 202], for which the inhibition at 0.001 µM is 52.5%, the inhibition at 0.01 µM was 99.4% and the inhibition at 0.1 µM worked out at 101%.
Taken in the same sequence, the figures for `C[C@H]1c2ccc(N3CCCC3)cc2CCN1c1nc2c(c(NC3(CO)CC3)n1)[S+]([O-])CC2` (stereo partly drawn) [Compound 203] were 14.8%, 84.1% and 99.9%.
On to `C[C@H]1c2ccc(N3CCCC3)cc2CCN1c1nc2c(c(NC3CS(=O)(=O)C3)n1)[S+]([O-])CC2` (stereo partly drawn) [Compound 204], for which the inhibition at 0.001 µM came to 23.1%, the inhibition at 0.01 µM stood at 87.2% and the inhibition at 0.1 µM was determined as 100%.
For `C[C@H]1c2ccc(N3CCCC3)cc2CCN1c1nc2c(c(NC3CCOCC3)n1)[S+]([O-])CC2` (stereo partly drawn) [Compound 205], the inhibition at 0.001 µM came out at 28.5%, the inhibition at 0.01 µM amounted to 92.4% and the inhibition at 0.1 µM amounted to 101%.
On the same counts, the results for `C[C@H]1c2ccc(N3CCCC3)cc2CCN1c1nc2c(c(NCc3cnn(C)c3)n1)[S+]([O-])CC2` (stereo partly drawn) [Compound 206] are 26.9%, 89.7% and 100%.
On to `C[C@H]1c2ccc(N3CCCC3)cc2CCN1c1nc2c(c(Nc3cnn(C)c3)n1)[S+]([O-])CC2` (stereo partly drawn) [Compound 207], for which the inhibition at 0.001 µM was 30.8%, the inhibition at 0.01 µM was 94.4% and the inhibition at 0.1 µM was found to be 100%.
In the case of `C[C@H]1c2ccc(N3CCCC3)cc2CCN1c1nc2c(c(Nc3cnn(C4CN(C)C4)c3)n1)[S+]([O-])CC2` (stereo partly drawn) [Compound 209], the inhibition at 0.001 µM is 4.48%, the inhibition at 0.01 µM turned out to be 9.75% and the inhibition at 0.1 µM stood at 61.7%.
Take `C[C@H]1c2ccc(N3CCCC3)cc2CCN1c1nc2c(c(NC3(CO)CCOC3)n1)[S+]([O-])CC2` (stereo partly drawn) [Compound 211]: the inhibition at 0.001 µM is 12.5%, the inhibition at 0.01 µM was determined as 50.1% and the inhibition at 0.1 µM stood at 98.4%.
`C[C@H]1c2ccc(N3CCCC3)cc2CCN1c1nc2c(c(Nc3nnn(C)n3)n1)[S+]([O-])CC2` (stereo partly drawn) [Compound 213]: the inhibition at 0.001 µM was found to be 9.25%, the inhibition at 0.01 µM was 29.6% and the inhibition at 0.1 µM stood at 89%.
On the same counts, the results for `C[C@H]1c2ccc(N3CCCC3)cc2CCN1c1nc2c(c(Nc3cn(C)nn3)n1)[S+]([O-])CC2` (stereo partly drawn) [Compound 214] are 1.8%, 15.1% and 64.1%.
